# Where two headings read alike, the source gives them in different places.
# How the values were obtained:
# Type in all cases: in vivo, C57BL/6 mice
# LP-BM5 [1] = test: Histopathological examination of liver and lymph node sections; details: in drinking water at 15 mg/mouse
# Excerpt: Samples of lymph nodes and liver from three animals in each treatment group were fixed in 4% paraformaldehyde in phosphate-buffered saline, sectioned, and stained with May Grunwald-Giemsa.
# mitochondrial DNA = test: Determination of mitochondrial DNA content; details: treatment C; vs. untreated mice; 10 weeks after infection; not statistically significant
# Excerpt: To detect the mitochondrial DNA a 1544-bp mitochondrial DNA fragment was used as a probe. The mitochondrial DNA probe (kindly provided by Dr. Gadaleta, University of Bari, Italy) spans the region from nucleotide 2578 to 4122 in the complete human mitochondrial DNA. As a result of the high homology between human and mouse mitochondrial DNA this probe recognizes human and mouse sequences equally well (data not shown) (Bibb M.J., Van Etten R.A., Wright C.T., Walberg M.W., Clayton D.A., "Sequence and gene organization of mouse mitochondrial DNA.", Cell 1981; 26:167-80).
# Total cellular DNA (4 µg) was digested with the restriction enzyme BamHI (Boehringer, Milan, Italy), analyzed on 0.8% agarose gel, blotted and hybridized with the 1544-bp mitochondrial probe (Brandi G., Casabianca A., Schiavano G.F., et al., "Efficacy and toxicity of long-term administration of 2',3'-dideoxycytidine in the LP-BM5 murine induced immunodeficiency model.", Antiviral Chem. Chemother. 1995; 6:153-61.). […]
# Finally, the long term toxicity of Fludara in MAIDS was evaluated. […] Thus, the mitochondrial DNA content in Fludara treated mice was evaluated and only treatment C causes a slight reduction of mitochondrial DNA content (20% vs. untreated mice) although this was not statistically significant. […] The relative amount of mt DNA was determined as described in experimental procedures. […]
# LP-BM5 [2] = details: for Lymphad. (% inh.) / Splenom. (% inh.): about 4 months from infection
# Excerpt: LP-BM5 virus was provided by Robert Yetter (Veternas Administration Hospital, Baltimore, MD) and was maintained in a persistently infected SC- 1 cell line as described (Hosier D.E., Yetter R.A., Morse H.C. III, "Functional T lymphocytes are required for a murine retrovirus induced immunodeficiency disease (MAIDS)", J. Exp. Med. 1987; 165:1737-42). C57BL/6 female mice were purchased from Nossan, Milan, Italy and were used at 5 weeks of age. Animals were infected by means of two successive intraperitoneal injections at 24-hr intervals. In the experiments reported three different virus preparations were used.
# Mice were housed at 22±1°C with a 12-hr light-dark cycle, 60±5% humidity, and 12 air changes/hr.
# First, the efficacy of 2-fluoro-ara-AMP (F-araAMP, Fludara) in inhibiting murine AIDS (MAIDS), a disease characterized by a lymphoproliferative disorder (lymphadenopathy and splenomegaly), associated with severe immunodeficiency and hypergammaglobulinemia, was evaluated. The disease develops in some strains of mice (C57BL/6) that are infected with a murine leukemia virus mixture termed LP-BM5. In the first preliminary experiments (after about 4 months from infection) LP-BMS infected animals were treated with three different concentrations of F-ara-AMP: 0.065 mg/mouse, 0.325 mg/mouse, 0.650 mg/mouse. The animals of each group were treated intraperitoneally for 3 days a week and for 3 weeks. At the end of the treatment animals were killed and splenomegaly, lymphadenopathy and hypergammaglobulinemia were evaluated.
# Infected mice after 7 weeks from infection were treated intraperitoneally with Fludara as follows: • 1. 0.65 mg/mouse once a day for 4 days a week (total dose 7.8 mg/mouse); • 2. 0.65 mg/mouse twice a day for 5 days a week (total dose 19.5 mg/mouse); • 3. […]
# [3] = 0.065 mg/mouse i.p. 3 days a week for 3 weeks
# [4] = 0.325 mg/mouse i.p. 3 days a week for 3 weeks
# [5] = 0.650 mg/mouse i.p. 3 days a week for 3 weeks
# [6] = group a: 3.0 mg i.p. once a day for 5 consecutive days, 4 weeks, after 7 weeks of infection
# [7] = group b: 3.0 mg i.p. twice a day for 5 consecutive days, 4 weeks, after 7 weeks of infection
# [8] = group c: 10 mg in drinking water for 5 consecutive days, 4 weeks, after 7 weeks of infection
# [9] = group d: 15 mg in drinking water for 5 consecutive days, 4 weeks, after 7 weeks of infection
# [10] = regime 1: 0.65 mg once a day 4 days/week for 3 weeks i.p., after 7 weeks of infection
# [11] = regime 2: 0.65 mg twice a day 5 days/week for 4 weeks i.p., after 7 weeks of infection
# [12] = regime 3: 3.00 mg once a day 5 days/week for 3 weeks i.p., after 7 weeks of infection
# [13] = treatment c: after 6 weeks of infection 3 mg F-ara-AMP i.p. twice a day, 5 consecutive days, 4 weeks, at 10 weeks after infection
# [14] = treatment g: after 6 weeks of infection 3 mg F-ara-AMP i.p. twice a day 4 weeks, then interrupted, at 14 weeks after infection
structure (smiles),measurement,setting,value
"Nc1nc(F)nc2c1ncn2[C@@H]1O[C@H](COP(=O)(O)O)[C@@H](O)[C@@H]1O [F-ara-AMP, Fludarabine phosphate]",toxicity in the liver (necrotic cells),LP-BM5 [1],some toxicity
same,reduction of mitochondrial DNA content,mitochondrial DNA,20%
same,Lymphad. (% inh.),LP-BM5 [2]; [3],20±15%
same,Splenom. (% inh.),LP-BM5 [2]; [3],0%
same,Lymphad. (% inh.),LP-BM5 [2]; [4],26±9%
same,Splenom. (% inh.),LP-BM5 [2]; [4],0%
same,Lymphad. (% inh.),LP-BM5 [2]; [5],49±6%
same,Splenom. (% inh.),LP-BM5 [2]; [5],0%
same,Lymph node w.,LP-BM5 [2]; [6],0.54 ± 0.32 g
same,Spleen w.,LP-BM5 [2]; [6],0.50 ± 0.25 g
same,Lymph node w.,LP-BM5 [2]; [7],0.05 ± 0.02 g
same,Spleen w.,LP-BM5 [2]; [7],0.22 ± 0.06 g
same,Lymph node w.,LP-BM5 [2]; [8],0.16 ± 0.16 g
same,Spleen w.,LP-BM5 [2]; [8],0.31 ± 0.09 g
same,Lymph node w.,LP-BM5 [2]; [9],0.28 ± 0.23 g
same,Spleen w.,LP-BM5 [2]; [9],0.28 ± 0.13 g
same,Lymph node w.,LP-BM5 [2]; [10],2.63 ± 0.57 g
same,Spleen weight,LP-BM5 [2]; [10],1.01 ± 0.24 g
same,Lymph node w.,LP-BM5 [2]; [11],2.11 ± 0.54 g
same,Spleen weight,LP-BM5 [2]; [11],0.87 ± 0.20 g
same,Lymph node w.,LP-BM5 [2]; [12],1.75 ± 0.53 g
same,Spleen weight,LP-BM5 [2]; [12],0.84 ± 0.17 g
same,Lymph node w.,LP-BM5 [2]; [13],0.042 ± 0.018 g
same,Spleen w.,LP-BM5 [2]; [13],0.130 ± 0.004 g
same,Lymph node w.,LP-BM5 [2]; [14],0.290 ± 0.05 g
same,Spleen w.,LP-BM5 [2]; [14],0.41 ± 0.200 g

# Source: EP0987025A1, “Pharmaceitical composition or composition package containing a pyrimidine nucleoside analogue and a purine nucleoside analogue” (priority 1998, dated 2000)
